# Biological target: Adenylate cyclase type 5 (Homo sapiens, UniProt O95622)
# Test: Inhibition of recombinant human adenylate cyclase 5 expressed in HEK293 cells
# Format: cell-based
# Adenylate cyclase type 5, sequence (O95622 whole entry): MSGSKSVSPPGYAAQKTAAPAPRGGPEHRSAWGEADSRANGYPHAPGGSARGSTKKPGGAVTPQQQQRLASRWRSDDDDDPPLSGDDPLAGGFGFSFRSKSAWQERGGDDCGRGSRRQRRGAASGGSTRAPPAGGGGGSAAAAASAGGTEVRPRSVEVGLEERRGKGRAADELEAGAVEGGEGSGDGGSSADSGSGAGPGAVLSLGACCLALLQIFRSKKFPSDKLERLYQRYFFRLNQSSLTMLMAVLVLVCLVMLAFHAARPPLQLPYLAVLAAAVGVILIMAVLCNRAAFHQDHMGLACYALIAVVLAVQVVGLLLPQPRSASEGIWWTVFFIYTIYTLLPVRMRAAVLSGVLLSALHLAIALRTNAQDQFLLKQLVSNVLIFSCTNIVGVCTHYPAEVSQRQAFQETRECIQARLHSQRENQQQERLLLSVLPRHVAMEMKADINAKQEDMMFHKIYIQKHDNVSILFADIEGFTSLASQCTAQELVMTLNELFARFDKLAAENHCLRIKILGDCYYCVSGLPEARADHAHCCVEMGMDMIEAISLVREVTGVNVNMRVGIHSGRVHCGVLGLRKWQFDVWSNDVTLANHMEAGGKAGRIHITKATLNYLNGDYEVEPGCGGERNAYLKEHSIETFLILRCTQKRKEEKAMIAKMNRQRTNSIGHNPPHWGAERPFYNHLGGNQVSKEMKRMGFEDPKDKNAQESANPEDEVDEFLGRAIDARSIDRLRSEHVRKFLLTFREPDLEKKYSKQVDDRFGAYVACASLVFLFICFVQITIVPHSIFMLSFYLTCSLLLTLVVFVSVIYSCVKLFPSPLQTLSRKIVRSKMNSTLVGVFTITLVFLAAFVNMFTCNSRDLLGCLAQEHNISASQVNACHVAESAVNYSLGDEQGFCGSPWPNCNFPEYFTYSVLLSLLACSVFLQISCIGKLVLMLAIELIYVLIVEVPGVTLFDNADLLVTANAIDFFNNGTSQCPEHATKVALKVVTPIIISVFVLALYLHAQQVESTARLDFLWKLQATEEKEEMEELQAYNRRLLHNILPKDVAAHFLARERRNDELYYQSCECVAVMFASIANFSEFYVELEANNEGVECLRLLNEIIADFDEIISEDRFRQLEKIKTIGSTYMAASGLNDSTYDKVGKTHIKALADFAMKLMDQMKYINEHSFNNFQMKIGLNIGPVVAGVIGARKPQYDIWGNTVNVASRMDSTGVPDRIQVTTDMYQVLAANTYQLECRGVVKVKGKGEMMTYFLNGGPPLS
row,SMILES,IC50 [µM]
1,Nc1ncnc2c1ncn2CCCCC(=O)O,> 200
2,Nc1ncnc2c1ncn2CCCCCC(=O)NO,35.4
3,CC(C)(C)OC(=O)N(CCCn1cnc2c(N)ncnc21)CC(=O)O,> 200
4,COC(=O)CNCCn1cnc2c(N)ncnc21,> 200
5,CCOC(=O)CCCCCn1cnc2c(N)ncnc21,> 200
6,Nc1ncnc2c1ncn2CCCCC(=O)NO,7.6
7,COC(=O)CN(CCn1cnc2c(N)ncnc21)C(C)=O,> 200
8,Nc1ncnc2c1ncn2CCCC(=O)NO,7.9
9,Nc1ncnc2c1ncn2CCCOCC(=O)O,140
10,Nc1ncnc2c1ncn2CCNCC(=O)NO,> 200
11,Nc1ncnc2c1ncn2CCCOCC(=O)NO,94
12,Nc1ncnc2c1ncn2CCCNCC(=O)NO,> 200
13,Nc1ncnc2c1ncn2CCC(=O)NO,> 200
14,CCOC(=O)CCCCCCn1cnc2c(N)ncnc21,> 200
15,CC(C)(C)OC(=O)N(CCn1cnc2c(N)ncnc21)CC(=O)NO,> 200
16,COC(=O)CNCCCn1cnc2c(N)ncnc21,> 200
17,Nc1ncnc2c1ncn2CCNCC(=O)O,> 200
18,CN(CCn1cnc2c(N)ncnc21)CC(=O)NO,15.3

# Continued, values first:
row,IC50 [µM],SMILES
1,> 200,Nc1ncnc2c1ncn2CCCCCCC(=O)NO
2,> 200,CC(C)(C)OC(=O)N(CCCn1cnc2c(N)ncnc21)CC(=O)NO
3,> 200,Nc1ncnc2c1ncn2CCCCCC(=O)O
4,> 200,Nc1ncnc2c1ncn2CCCNCC(=O)O
5,> 200,COC(=O)CN(C)CCn1cnc2c(N)ncnc21
6,> 200,CC(=O)N(CCn1cnc2c(N)ncnc21)CC(=O)NO
7,> 200,CC(C)(C)OC(=O)N(CCn1cnc2c(N)ncnc21)CC(=O)O
8,> 200,COC(=O)CCCCn1cnc2c(N)ncnc21
9,> 200,CC(=O)N(CCn1cnc2c(N)ncnc21)CC(=O)O
10,> 200,Nc1ncnc2c1ncn2CCCCCCC(=O)O
11,> 200,CCOC(=O)COCCCn1cnc2c(N)ncnc21
12,> 200,COC(=O)CN(CCn1cnc2c(N)ncnc21)C(=O)OC(C)(C)C

# Reference: ChEMBL document CHEMBL1135849, “Hydroxamate based inhibitors of adenylyl cyclase. Part 1: the effect of acyclic linkers on P-site binding” (Bioorg Med Chem Lett, 2002)
